# Source: patent US11801231B2, “Oral compositions and methods of use” (3M INNOVATIVE PROPERTIES COMPANY, priority 2017, dated 2023)
# Test system: Streptococcus mutans biofilm
# Assay: Biofilm disruption test (modified MBEC assay)
# Type: cell-based, Streptococcus mutans (ATCC 25175)
# Text: In some embodiments, disclosed compositions can prevent, inhibit, disrupt, disperse, reduce the formation or maintenance of a biofilm in an area contacted with the composition. In some embodiments, a composition can prevent, inhibit, disrupt, disperse, reduce the formation or maintenance of a biofilm in a mouth of a user where the composition was applied to the mouth when compared to a mouth without the composition applied thereto. […] Preventing, inhibiting, disrupting, dispersing, reducing, controlling, or some combination thereof the formation or maintenance of biofilms can be measured using a modified version of the MBEC assay (described in ASTM E2799), which measures disruption of Streptococcus mutans biofilms grown on special pegs in a microtiter plate. […] The biofilm remaining on each peg following treatment is quantified by measuring the amount of fluorescently labeled bacteria that eluted from the pegs at the end of the treatment cycles (see example). […] Decreasing plaque buildup can be measured by a variety of methods in vivo including for example plaque scoring, dyeing of plaque, etc.
# This method utilizes the high throughput MBEC assay system (Innovotech, Calgary, AB Canada). The method evaluates efficacy of a treatment in disrupting biofilm by quantifying the amount of fluorescent-labeled biofilm remaining on MBEC inoculator pegs after exposure to relevant treatment conditions. […]
smiles,measurement,setting,value
"N=C(NCCCCCCNC(=N)NC(=N)Nc1ccc(Cl)cc1)NC(=N)Nc1ccc(Cl)cc1.O=C(O)[C@H](O)[C@@H](O)[C@H](O)[C@H](O)CO.O=C(O)[C@H](O)[C@@H](O)[C@H](O)[C@H](O)CO [0.1% CHG, chlorhexidine gluconate]",Normalized Relative Fluorescence (%),"normalized to PBS negative control in the same plate, low value = more biofilm disruption",3.8%
same,Fluorescence intensity of Alexafluor 488-labeled S. mutans biofilm matrix,"two 1-minute treatment cycles, biofilm eluted from MBEC pegs, ex 488 nm, em 525 nm",1281 a.u.
